Data published in patent US7297700B2, “Bicycloheteroaryl compounds as P2X7 modulators and uses thereof” (Renovis, Inc., priority 2005, dated 2007).

test system: IL-1β release from THP-1 cells; test: IL-1β Release Assay (Alternate Method), THP-1 cells; assay type: cell-based, human; conditions: at 0.3 μM; THP-1 cells
Method: THP-1 cells (ATCC Cat #285-IF-100) are plated in 96 well plates at a concentration of 200,000 cells per well and allowed to differentiate in RPMI-1640 media (ATCC Cat #30-2001) containing 10% FBS, 100 IU/mL penicillin, 100 ug/mL streptomycin, 100 ng/mL LPS and 100 ng/mL IFN-γ for 16 hours. Following differentiation, the cells are treated for an additional 2 hours in RPMI-1640 media containing 100 IU/mL penicillin, 100 ug/mL streptomycin and fresh LPS at 100 ng/mL. The cells are then pretreated for 30 minutes with the compound of interest at the appropriate concentration in RPMI media containing 100 IU/mL penicillin, 100 ug/mL streptomycin. Following the pretreatment 2′, 3′-O-(4-benzoylbenzoyl)-adenosine 5′-triphosphate (Sigma Aldrich Cat#B6396) is added to a final concentration of 250 uM and the cells incubated for an additional 45 minutes. 30 uL of cell supernatant is then collected and IL-1β levels determined via ELISA (R&D systems Cat. #HSLB50) according to manufacturer's recommendations using the Tecan Safire plate reader. Background adjusted IL-1β levels of drug treated and non-treated cells are used to calculate the percent inhibition.

| SMILES | IL-1β % inhibition |
| --- | --- |
| O=C(NCC1CCCCC1)c1ncnc2c1CCN(Cc1cccc(Cl)c1)C2 [Compound 53] | + (compound exhibited 0-25% inhibition at 0.3 μM) |
| COc1ccc(CN2CCc3c(ncnc3C(=O)NCC3CCCCC3)C2)cc1 [Compound 54] | + (compound exhibited 0-25% inhibition at 0.3 μM) |
| Cc1ccc(CN2CCc3c(ncnc3C(=O)NCC3CCCCC3)C2)cc1 [Compound 55] | + (compound exhibited 0-25% inhibition at 0.3 μM) |
| CS(=O)(=O)c1ccc(CN2CCc3c(ncnc3C(=O)NCC3CCCCC3)C2)cc1 [Compound 56] | + (compound exhibited 0-25% inhibition at 0.3 μM) |
| O=C(NCC1(O)CCCCCC1)c1ncnc2c1CCN(Cc1ccccc1)C2 [Compound 58] | + (compound exhibited 0-25% inhibition at 0.3 μM) |
| CC1(C)CCCC(O)(CNC(=O)c2ncnc3c2CCN(Cc2ccccc2)C3)C1 (stereo not shown) [Compound 59] | + (compound exhibited 0-25% inhibition at 0.3 μM) |
| Cc1ccc(C2(CNC(=O)c3ncnc4c3CCN(Cc3ccccc3)C4)CCCCC2)cc1 [Compound 60] | + (compound exhibited 0-25% inhibition at 0.3 μM) |
| O=C(CC12CC3CC(CC(C3)C1)C2)Nc1ncnc2c1CCN(Cc1ccccn1)C2 [Compound 61] | + (compound exhibited 0-25% inhibition at 0.3 μM) |
| CC(=O)Nc1ccc(CN2CCc3c(ncnc3NC(=O)CC34CC5CC(CC(C5)C3)C4)C2)cc1 [Compound 62] | +++ (compound exhibited 50-75% inhibition at 0.3 μM) |
| O=C(CC12CC3CC(CC(C3)C1)C2)Nc1ncnc2c1CCN(CCCc1ccccc1)C2 [Compound 63] | + (compound exhibited 0-25% inhibition at 0.3 μM) |
| O=C(CC12CC3CC(CC(C3)C1)C2)Nc1ncnc2c1CCN(Cc1ccc3[nH]ccc3c1)C2 [Compound 64] | + (compound exhibited 0-25% inhibition at 0.3 μM) |
| O=C(CC12CC3CC(CC(C3)C1)C2)Nc1ncnc2c1CCN(Cc1ccc(-c3ccccn3)cc1)C2 [Compound 65] | + (compound exhibited 0-25% inhibition at 0.3 μM) |
| Cc1ccc(CN2CCc3c(ncnc3NC(=O)CC34CC5CC(CC(C5)C3)C4)C2)s1 [Compound 66] | + (compound exhibited 0-25% inhibition at 0.3 μM) |
| Cn1ccnc1CN1CCc2c(ncnc2NC(=O)CC23CC4CC(CC(C4)C2)C3)C1 [Compound 67] | ++ (compound exhibited 25-50% inhibition at 0.3 μM) |
| O=C(CC12CC3CC(CC(C3)C1)C2)Nc1ncnc2c1CCN(Cc1cccc(Oc3ccccc3)c1)C2 [Compound 68] | + (compound exhibited 0-25% inhibition at 0.3 μM) |
| O=C(CC12CC3CC(CC(C3)C1)C2)Nc1ncnc2c1CCN(Cc1ccnc3ccccc13)C2 [Compound 69] | + (compound exhibited 0-25% inhibition at 0.3 μM) |
| O=C(CC12CC3CC(CC(C3)C1)C2)Nc1ncnc2c1CCN(Cc1cccc(C(F)(F)F)c1)C2 [Compound 70] | + (compound exhibited 0-25% inhibition at 0.3 μM) |
| CC(C)(C)c1ccc(CN2CCc3c(ncnc3NC(=O)CC34CC5CC(CC(C5)C3)C4)C2)cc1 [Compound 71] | + (compound exhibited 0-25% inhibition at 0.3 μM) |
| O=C(CC12CC3CC(CC(C3)C1)C2)Nc1ncnc2c1CCN(Cc1ccc(C(F)(F)F)cc1)C2 [Compound 72] | + (compound exhibited 0-25% inhibition at 0.3 μM) |
| O=C(CC12CC3CC(CC(C3)C1)C2)Nc1ncnc2c1CCN(Cc1ccc3ccccc3n1)C2 [Compound 73] | + (compound exhibited 0-25% inhibition at 0.3 μM) |
| O=C(CC12CC3CC(CC(C3)C1)C2)Nc1ncnc2c1CCN(Cc1ccc(OC(F)(F)F)cc1)C2 [Compound 74] | + (compound exhibited 0-25% inhibition at 0.3 μM) |
| O=C(CC12CC3CC(CC(C3)C1)C2)Nc1ncnc2c1CCN(Cc1ccc(Oc3ccccc3)cc1)C2 [Compound 75] | + (compound exhibited 0-25% inhibition at 0.3 μM) |
| O=C(CC12CC3CC(CC(C3)C1)C2)Nc1ncnc2c1CCN(Cc1ccccc1OC(F)(F)F)C2 [Compound 76] | + (compound exhibited 0-25% inhibition at 0.3 μM) |
| O=C(CC12CC3CC(CC(C3)C1)C2)Nc1ncnc2c1CCN(Cc1ccccc1OC(F)F)C2 [Compound 77] | + (compound exhibited 0-25% inhibition at 0.3 μM) |
| O=C(CC12CC3CC(CC(C3)C1)C2)Nc1ncnc2c1CCN(Cc1ccc(OC(F)F)cc1)C2 [Compound 78] | + (compound exhibited 0-25% inhibition at 0.3 μM) |
| O=C(CC12CC3CC(CC(C3)C1)C2)Nc1ncnc2c1CCN(Cc1ccc(-c3ccccc3)s1)C2 [Compound 79] | + (compound exhibited 0-25% inhibition at 0.3 μM) |

| SMILES | IL-1β % inhibition |
| --- | --- |
| CCCCc1nc(CN2CCc3c(ncnc3NC(=O)CC34CC5CC(CC(C5)C3)C4)C2)c[nH]1 [Compound 80] | ++ (compound exhibited 25-50% inhibition at 0.3 μM) |
| Cc1nc[nH]c1CN1CCc2c(ncnc2NC(=O)CC23CC4CC(CC(C4)C2)C3)C1 [Compound 81] | +++ (compound exhibited 50-75% inhibition at 0.3 μM) |
| O=C(CC12CC3CC(CC(C3)C1)C2)Nc1ncnc2c1CCN(Cc1c[nH]cn1)C2 [Compound 82] | +++ (compound exhibited 50-75% inhibition at 0.3 μM) |
| O=C(CC12CC3CC(CC(C3)C1)C2)Nc1ncnc2c1CCN(Cc1ccc(Cl)s1)C2 [Compound 83] | ++++ (compound exhibited 75% or greater inhibition at 0.3 μM) |
| N#Cc1cc(CN2CCc3c(ncnc3NC(=O)CC34CC5CC(CC(C5)C3)C4)C2)ccc1F [Compound 84] | + (compound exhibited 0-25% inhibition at 0.3 μM) |
| Cc1ccc(CN2CCc3c(ncnc3NC(=O)CC34CC5CC(CC(C5)C3)C4)C2)cc1F [Compound 85] | + (compound exhibited 0-25% inhibition at 0.3 μM) |
| Cc1cc(CN2CCc3c(ncnc3NC(=O)CC34CC5CC(CC(C5)C3)C4)C2)ccc1F [Compound 86] | ++ (compound exhibited 25-50% inhibition at 0.3 μM) |
| Cc1ccc(Cl)c(CN2CCc3c(ncnc3NC(=O)CC34CC5CC(CC(C5)C3)C4)C2)c1F [Compound 87] | ++ (compound exhibited 25-50% inhibition at 0.3 μM) |
| Cc1ccc(F)c(CN2CCc3c(ncnc3NC(=O)CC34CC5CC(CC(C5)C3)C4)C2)c1Cl [Compound 88] | +++ (compound exhibited 50-75% inhibition at 0.3 μM) |
| CN(CCO)c1ccc(CN2CCc3c(ncnc3NC(=O)CC34CC5CC(CC(C5)C3)C4)C2)cc1 [Compound 89] | + (compound exhibited 0-25% inhibition at 0.3 μM) |
| O=C(CC12CC3CC(CC(C3)C1)C2)Nc1ncnc2c1CCN(Cc1cccc3c1OC(F)(F)O3)C2 [Compound 90] | + (compound exhibited 0-25% inhibition at 0.3 μM) |
| NC(=O)COc1ccc(CN2CCc3c(ncnc3NC(=O)CC34CC5CC(CC(C5)C3)C4)C2)cc1 [Compound 91] | + (compound exhibited 0-25% inhibition at 0.3 μM) |
| O=C(CC1CCCCCC1)Nc1ncnc2c1CCN(Cc1cccnc1)C2 [Compound 93] | + (compound exhibited 0-25% inhibition at 0.3 μM) |
| O=C(CC1CCCCCC1)Nc1ncnc2c1CCN(Cc1ccccn1)C2 [Compound 94] | + (compound exhibited 0-25% inhibition at 0.3 μM) |
| COc1ccc(CN2CCc3c(ncnc3NC(=O)CC34CC5CC(CC(C5)C3)C4)C2)c(F)c1 [Compound 95] | ++++ (compound exhibited 75% or greater inhibition at 0.3 μM) |
| O=C(CC12CC3CC(CC(C3)C1)C2)Nc1ncnc2c1CCN(Cc1cc(F)ccc1C(F)(F)F)C2 [Compound 96] | + (compound exhibited 0-25% inhibition at 0.3 μM) |
| O=C(CC12CC3CC(CC(C3)C1)C2)Nc1ncnc2c1CCN(Cc1ccc(C(F)(F)F)c(F)c1)C2 [Compound 97] | ++ (compound exhibited 25-50% inhibition at 0.3 μM) |
| O=C(CC12CC3CC(CC(C3)C1)C2)Nc1ncnc2c1CCN(Cc1ccc(-n3ccnc3)cc1)C2 [Compound 98] | ++ (compound exhibited 25-50% inhibition at 0.3 μM) |
| O=C(CC12CC3CC(CC(C3)C1)C2)Nc1ncnc2c1CCN(Cc1ccc(OCCO)cc1)C2 [Compound 99] | + (compound exhibited 0-25% inhibition at 0.3 μM) |
| O=C(CC12CC3CC(CC(C3)C1)C2)Nc1ncnc2c1CCN(Cc1ccccc1OCCO)C2 [Compound 100] | ++ (compound exhibited 25-50% inhibition at 0.3 μM) |
| O=C(CC12CC3CC(CC(C3)C1)C2)Nc1ncnc2c1CCN(Cc1cccc(OCCO)c1)C2 [Compound 101] | ++ (compound exhibited 25-50% inhibition at 0.3 μM) |
| COc1ccc(F)cc1CN1CCc2c(ncnc2NC(=O)CC23CC4CC(CC(C4)C2)C3)C1 [Compound 102] | + (compound exhibited 0-25% inhibition at 0.3 μM) |
| COc1cc(CN2CCc3c(ncnc3NC(=O)CC34CC5CC(CC(C5)C3)C4)C2)ccc1F [Compound 103] | + (compound exhibited 0-25% inhibition at 0.3 μM) |
| COc1ccc(F)c(CN2CCc3c(ncnc3NC(=O)CC34CC5CC(CC(C5)C3)C4)C2)c1 [Compound 104] | +++ (compound exhibited 50-75% inhibition at 0.3 μM) |
| O=C(CC12CC3CC(CC(C3)C1)C2)Nc1ncnc2c1CCN(Cc1ccc3c(c1)CCO3)C2 [Compound 105] | + (compound exhibited 0-25% inhibition at 0.3 μM) |
| O=C(CC12CC3CC(CC(C3)C1)C2)Nc1ncnc2c1CCN(Cc1ccc(F)c(C(F)(F)F)c1)C2 [Compound 106] | + (compound exhibited 0-25% inhibition at 0.3 μM) |
